Non-standard residues stand in square brackets, D forms with d. Residues, ends and D or L forms follow the SMILES beside them. *: point of attachment. AllylGly = C=CC[C@H](N)C(=O)O; Acryloyl = C=CC(=O)*; NHBn = c1ccc(CN*)cc1; ClAc = O=C(CCl)*
System: SARS-CoV-2
Test: microbe, parasite or virus in culture
Conditions: Severe acute respiratory syndrome coronavirus 2, RG-2674 (Beta), Vero

Compound	EC50 [µM]
C=CC[C@H](NC(=O)CCl)C(=O)N[C@@H](CC=C)C(=O)N[C@H](CNCc1ccccc1)Cc1c[nH]c2ccccc12	2.16
CC(C)C[C@@H](NC(=O)CCl)C(=O)N[C@@H](Cc1c[nH]c2ccccc12)C(=O)NCc1ccccc1	0.07
O=C(CS)N[C@@H](Cc1ccccc1)C(=O)N[C@@H](Cc1c[nH]c2ccccc12)C(=O)NCc1ccccc1	> 100
C=CC[C@H](NC(=O)CCl)C(=O)N[C@@H](Cc1c[nH]c2ccccc12)C(=O)NCCN1CCOCC1	5.9
CC(C)C[C@H](NC(=O)CCl)C(=O)N[C@H](Cc1c[nH]c2ccccc12)C(=O)NCc1ccccc1	8.93
CC(C)C[C@@H](C(=O)NCC12CC3CC(CC(C3)C1)C2)N(Cc1ccccc1)C(=O)CCl	> 4
CC(C)C[C@H](NC(=O)CCl)C(=O)N[C@@H](Cc1c[nH]c2ccccc12)C(=O)NCc1ccccc1	0.44
C=CC(=O)N[C@@H](CC(C)C)C(=O)N[C@@H](Cc1c[nH]c2ccccc12)C(=O)NCc1ccccc1	> 100
C=CC(=O)N[C@@H](Cc1ccccc1)C(=O)N[C@@H](Cc1c[nH]c2ccccc12)C(=O)NCc1ccccc1 (Acryloyl-Phe-Trp-NHBn)	> 20
O=C(CCl)NCC(=O)N[C@@H](Cc1c[nH]c2ccccc12)C(=O)NCc1ccccc1 (ClAc-Gly-Trp-NHBn)	0.07
CC(C)C[C@H](NC(=O)CCl)C(=O)N[C@@H](Cc1ccccc1)C(=O)N[C@@H](Cc1c[nH]c2ccccc12)C(=O)NCc1ccccc1 (ClAc-Leu-Phe-Trp-NHBn)	> 20
COC(=O)[C@H](CCC(N)=O)NC(=O)[C@H](Cc1c[nH]c2ccccc12)NC(=O)[C@H](CC(C)C)NC(=O)CCl (ClAc-Leu-Trp-Gln-OMe)	> 100
O=C(CCl)N[C@@H](Cc1ccccc1)C(=O)N[C@@H](Cc1c[nH]c2ccccc12)C(=O)NCc1ccccc1 (ClAc-Phe-Trp-NHBn)	0.07
CC(C)C[C@H](NC(=O)[C@H](Cc1c[nH]c2ccccc12)NC(=O)CCl)C(=O)NCc1ccccc1 (ClAc-Trp-Leu-NHBn)	0.26
COC(=O)[C@H](CC(C)C)NC(=O)[C@H](Cc1c[nH]c2ccccc12)NC(=O)CCl (ClAc-Trp-Leu-OMe)	> 4
O=C(CCl)N[C@@H](Cc1ccc(O)cc1)C(=O)N[C@@H](Cc1c[nH]c2ccccc12)C(=O)NCc1ccccc1 (ClAc-Tyr-Trp-NHBn)	3.32
C=CC[C@H](NC(=O)CCl)C(=O)N[C@@H](Cc1c[nH]c2ccccc12)C(=O)NCc1ccccc1 (ClAc-[AllylGly]-Trp-NHBn)	0.46
CC(C)C(=O)OC[C@H]1O[C@@H](n2ccc(NO)nc2=O)[C@H](O)[C@@H]1O [MOLNUPIRAVIR]	2.81
CCC(CC)COC(=O)[C@H](C)N[P@](=O)(OC[C@H]1O[C@@](C#N)(c2ccc3c(N)ncnn23)[C@H](O)[C@@H]1O)Oc1ccccc1 [REMDESIVIR]	2.4
